Reference: EPA's ToxValDB 9.5

Key:
Canidae = conditions: Dog Other
[1] = subchronic, duration: 90 days, oral, diet, M/F, Sprague-Dawley, no effects
[2] = subchronic, duration: 90 days, oral, diet, M/F, no effects
[3] = subchronic, duration: 90 days, clinical chemistry
[4] = reproduction developmental, histopathology: nonneoplastic
[5] = chronic, duration: 2 years, M/F, clinical chemistry
[6] = subchronic, duration: 90 days, oral, diet, Wistar, no effects

Compound: O=C([O-])c1cc(C(=O)[O-])c2c(n1)C(=O)C(=O)c1cc(C(=O)O)[nH]c1-2.[Na+].[Na+]
- NOAEL (Rattus norvegicus; subchronic, duration: 90 days, oral, gavage, M/F, Crj:CD): 100 mg/kg-day

Compound: CC(C)(CO)C1OCC2(CO1)COC(C(C)(C)CO)OC2 (configuration not stated)
- NOAEL (Rattus norvegicus; subchronic, duration: 90 days, oral, M/F, Sprague-Dawley, no effects): 2000 mg/kg-day

Compound: CC(C)CC(=O)N1CCC[C@H](COc2cccc3c2C(N)=NS(=O)(=O)N3)C1
- NOAEL (Rattus norvegicus; reproduction developmental, duration: 15 days, oral, gavage, no effects): 1000 mg/kg-day
- NOAEL (Rattus norvegicus; subchronic, duration: 13 weeks, oral, diet, M/F, no effects): 100 mg/kg-day

Compound: CCCNC(=O)C(C)(C)COc1cccc2c1C(N)=NS(=O)(=O)N2
- NOAEL (Rattus norvegicus; [1]): 20 mg/kg-day

Compound: CC(=O)c1cccc2ccccc12 [1'-Acetonaphthone]
- NOAEL (Rattus norvegicus; [2]): 33 mg/kg-day

Compound: CC(O)CO (configuration not stated) [1,2-Propylene glycol]
- NOEL (Rattus norvegicus; chronic, duration: 2 years): 2500 mg/kg-day

Compound: OC1CSC(O)CS1 (configuration not stated) [1,4-Dithiane-2,5-diol]
- NOAEL (Rattus norvegicus; [1]): 3.14 mg/kg-day

Compound: SCCCCCCCCS [1,8-Octanedithiol]
- NOAEL (Rattus norvegicus; [1]): 0.705 mg/kg-day

Compound: CC(=O)CSCc1ccco1 [1-(2-Furfurylthio)propanone]
- NOAEL (Rattus norvegicus; [2]): 3.76 mg/kg-day

Compound: C=C(C)c1ccc(C)cc1 [1-Methyl-4-(prop-1-en-2-yl)benzene]
- NOAEL (Rattus norvegicus; subchronic, duration: 90 days): 0.625 mg/kg-day

Compound: Clc1cc2c(cc1Cl)Oc1cc(Cl)c(Cl)cc1O2 [2,3,7,8-Tetrachlorodibenzo-p-dioxin]
- LOAEL (Rattus norvegicus; reproduction developmental, injection, subcutaneous, Wistar, behavior): 2.5e-05 mg/kg-day

Compound: CC(S)C(C)S (configuration not stated) [2,3-Butanedithiol]
- NOAEL (Rattus norvegicus; [1]): 0.703 mg/kg-day

Compound: Clc1ccc(-c2ccc(Cl)cc2Cl)cc1 [2,4,4'-Trichlorobiphenyl]
- NOAEL (Rattus norvegicus; [3]): 0.4 mg/kg-day

Compound: CCC(C)(C)c1ccc(O)c(C(C)(C)CC)c1 [2,4-Di-tert-pentylphenol]
- NOAEL (Rattus norvegicus; subchronic, duration: 90 days, oral, M/F, Wistar, histopathology: nonneoplastic): 5 mg/kg-day

Compound: CC(C)=CCCC(C)C=O (configuration not stated) [2,6-Dimethylhept-5-enal]
- NOAEL (Rattus norvegicus; subchronic, duration: 3 months, oral, diet, M/F, organ weight): 37 mg/kg-day

Compound: CC(C)=CC(=O)SC(C)C [2-Butenethioic acid, 3-methyl-, S-(1-methylethyl) ester]
- NOAEL (Rattus norvegicus; subchronic, duration: 90 days, oral): 6.63 mg/kg-day

Compound: CCC1SSC(CC)S1 (configuration not stated) [3,5-Diethyl-1,2,4-trithiolane]
- NOAEL (Rattus norvegicus; [1]): 0.2 mg/kg-day

Compound: CCOC(=O)c1ccoc1-c1ccccc1 [3-Furancarboxylic acid, 2-phenyl-, ethyl ester]
- NOEL (Rattus norvegicus; subchronic, duration: 90 days, oral, diet): 13 mg/kg-day

Compound: CC1=C(O)C(=O)C(C)O1 (configuration not stated) [4-Hydroxy-2,5-dimethyl-3(2H)furanone]
- NOAEL (Rattus norvegicus; chronic, duration: 2 years, M/F, body weight): 200 mg/kg-day
- NOAEL (Rattus norvegicus; chronic, duration: 2 years, oral, diet, M/F, Sprague-Dawley, body weight): 200 mg/kg-day

Compound: Cc1ccc(C(=O)c2ccccc2)cc1 [4-Methylbenzophenone]
- LOAEL (Rattus norvegicus; [4]): 6 mg/kg-day

Compound: CC1CCC2(O1)C(C)(C)CCCC2(C)O (configuration not stated) [6-Hydroxydihydrotheaspirane]
- NOAEL (Rattus norvegicus; subchronic, duration: 90 days, oral, diet, M/F, Crj:CD, food efficiency): 52 mg/kg-day

Compound: Cc1ccc2ncccc2c1 [6-Methylquinoline]
- NOAEL (Rattus norvegicus; [2]): 2.2 mg/kg-day

Compound: CCCCC/C=C/C=C/C(=O)NCC(C)C [(E,E)-N-(2-Methylpropyl)-2,4-decadienamide]
- NOAEL (Rattus norvegicus; subchronic, duration: 90 days, oral, diet, M/F, Sprague-Dawley, histopathology: nonneoplastic): 10 mg/kg-day

Compound: CC(C)=O [Acetone]
- NOAEL (Rattus norvegicus; subchronic, duration: 90 days, oral, drinking water): 900 mg/kg-day

Compound: O=S(=O)([O-])c1ccc2c(N=Nc3ccc(S(=O)(=O)[O-])c4ccccc34)c(O)c(S(=O)(=O)[O-])cc2c1.[Na+].[Na+].[Na+] [Amaranth]
- NOAEL (Rattus norvegicus; developmental, duration: 19 days, oral, gavage, F, Osborne-Mendel, development): 15 mg/kg-day

Compound: O=C(c1ccccc1)c1ccccc1 [Benzophenone]
- LOAEL (Rattus norvegicus; [4]): 6 mg/kg-day

Compound: OCc1ccccc1 [Benzyl alcohol]
- NOAEL (Rattus norvegicus; chronic, duration: 103 weeks, oral, gavage, M/F, no effects): 400 mg/kg-day

Compound: CCCCOC(=O)c1ccccc1C(=O)OCc1ccccc1 [Benzyl butyl phthalate]
- NOAEL (Rattus norvegicus; developmental, oral, diet, M/F, development): 50 mg/kg-day

Compound: Cc1occc1SSSSc1ccoc1C [Bis(2-methyl-3-furyl) tetrasulfide]
- NOAEL (Rattus norvegicus; subchronic, duration: 90 days, oral, diet, M/F, Wistar, no effects): 0.56 mg/kg-day

Compound: N#Cc1cc(Br)c(O)c(Br)c1 [Bromoxynil]
- NOAEL (Canidae; chronic, duration: 1 years, oral, organ weight): 0.3 mg/kg-day
- NOAEL (Rattus norvegicus; developmental, development): 4 mg/kg-day

Compound: O=C([O-])c1[nH]n(-c2ccc(S(=O)(=O)[O-])cc2)c(=O)c1N=Nc1ccc(S(=O)(=O)[O-])cc1.[Na+].[Na+].[Na+] [C.I. Acid Yellow 23]
- NOAEL (Rattus norvegicus; chronic, M, body weight): 984 mg/kg-day

Compound: CCCCCCCCCCCCCCCCCC(=O)OC(C)C(=O)OC(C)C(=O)[O-].CCCCCCCCCCCCCCCCCC(=O)OC(C)C(=O)OC(C)C(=O)[O-].[Ca+2] (configuration not stated) [Calcium stearoyl-2-lactylate]
- NOAEL (Rattus norvegicus; chronic, duration: 1 years, M/F, Wistar, no effects): 2200 mg/kg-day

Compound: [Cr+3] [Chromium (III)]
- NOAEL (Rattus norvegicus; chronic, duration: 2 years, oral, diet, M/F, Fischer 344, histopathology: neoplastic): 286 mg/kg-day

Compound: O=c1ccc2ccccc2o1 [Coumarin]
- NOAEL (Canidae; chronic, duration: 2 years, histopathology: nonneoplastic): 10 mg/kg-day

Compound: COc1cc(/C=C/C(=O)CC(=O)/C=C/c2ccc(O)c(OC)c2)ccc1O [Curcumin]
- NOAEL (Rattus norvegicus; reproduction developmental, duration: 24 weeks, oral, diet, M/F, body weight): ≥ 250 mg/kg-day

Compound: ClC1=C(Cl)[C@]2(Cl)[C@@H]3[C@@H]4C[C@@H]([C@H]5O[C@@H]45)[C@@H]3[C@@]1(Cl)C2(Cl)Cl [Dieldrin]
- LD50 (Rattus norvegicus; acute, oral, mortality): 25 mg/kg-day

Compound: O=C(NC(=O)c1c(F)cccc1F)Nc1ccc(Cl)cc1 [Diflubenzuron]
- NOAEL (Canidae; chronic, duration: 1 years, oral, hematological): 10 mg/kg-day
- LD50 (Rattus norvegicus; acute, dermal, mortality): > 2000 mg/kg
- LC50 (Rattus norvegicus; acute, duration: 4 hours, inhalation, mortality): > 2.5 µg/mL
- LD50 (Rattus norvegicus; acute, oral, mortality): > 4640 mg/kg

Compound: COc1cc(COC(=O)CCCCCCC(C)C)ccc1O [Dihydrocapsiate]
- NOAEL (Rattus norvegicus; chronic, duration: 26 weeks, oral, gavage, M/F, Sprague-Dawley, histopathology: nonneoplastic): 300 mg/kg-day
- NOAEL (Rattus norvegicus; subchronic, duration: 13 weeks, oral, gavage, M/F, Sprague-Dawley, clinical chemistry): 300 mg/kg-day
- NOAEL (Rattus norvegicus; subchronic, duration: 13 weeks, oral, gavage, M/F, Sprague-Dawley, organ weight): 300 mg/kg-day

Compound: CC(C)CCCCCCCOC(=O)c1ccccc1C(=O)OCCCCCCCC(C)C [Diisodecyl phthalate]
- NOAEL (Canidae; subchronic, duration: 13 weeks, histopathology: nonneoplastic): 15 mg/kg-day

Compound: CC(C)CCCCCCOC(=O)C1CCCCC1C(=O)OCCCCCCC(C)C (configuration not stated) [Diisononyl cyclohexane-1,2-dicarboxylate]
- NOAEL (Rattus norvegicus; subchronic, duration: 13 weeks, M/F, Wistar, clinical chemistry): 100 mg/kg-day

Compound: c1ccc(Oc2ccccc2)cc1 [Diphenyl oxide]
- NOAEL (Rattus norvegicus; subchronic, duration: 90 days, oral, body weight): 15 mg/kg-day

Compound: CCOC(=O)C1OC1(C)c1ccc(C)cc1 (configuration not stated) [Ethyl 3-methyl-3-(4-methylphenyl)oxirane-2-carboxylate]
- NOAEL (Rattus norvegicus; [5]): 35 mg/kg-day

Compound: CCOC(=O)C1OC1(C)c1ccccc1 (configuration not stated) [Ethyl methylphenylglycidate]
- NOAEL (Rattus norvegicus; [5]): 35 mg/kg-day

Compound: O=S(=O)([O-])c1ccc(N=Nc2c(O)ccc3cc(S(=O)(=O)[O-])ccc23)cc1.[Na+].[Na+] [FD&C Yellow 6]
- NOAEL (Canidae; chronic, duration: 7 years, oral, F, no effects): 500 mg/kg-day
- NOAEL (Rattus norvegicus; reproduction developmental, duration: 28 days, oral, diet, body weight): 375 mg/kg-day
- NOAEL (Rattus norvegicus; subchronic, duration: 90 days, oral, diet, M/F, histopathology: nonneoplastic): 500 mg/kg-day

Compound: Cc1cc(SSc2cc(C)oc2C)c(C)o1 [Furan, 3,3'-dithiobis[2,5-dimethyl-]
- NOAEL (Rattus norvegicus; subchronic, duration: 90 days, no effects): 0.29 mg/kg-day

Compound: Cc1occc1SSCc1ccco1 [Furfuryl 2-methyl-3-furyl disulfide]
- NOAEL (Rattus norvegicus; [6]): 0.45 mg/kg-day

Compound: CCCOC(=O)c1cc(O)c(O)c(O)c1 [Gallic acid n-propyl ester]
- NOAEL (Rattus norvegicus; subchronic, duration: 13 weeks, oral, diet, M/F, clinical chemistry): 1910 mg/kg-day
- NOAEL (Rattus norvegicus; subchronic, duration: 90 days, oral, diet, M/F, hematological): 135 mg/kg-day

Compound: CC/C=C/CCOC(=O)C(CC)CC [Hex-3-enyl 2-ethylbutanoate]
- NOAEL (Rattus norvegicus; reproduction developmental, duration: 10 days, oral, gavage, F, Sprague-Dawley, no effects): 200 mg/kg-day
- NOAEL (Rattus norvegicus; reproduction developmental, duration: 10 days, oral, gavage, F, no effects): 200 mg/kg-day

Compound: c1ccc2cnccc2c1 [Isoquinoline]
- NOAEL (Rattus norvegicus; subchronic, duration: 90 days, oral, gavage, M/F, Sprague-Dawley, no effects): 3 mg/kg-day

Compound: CC(=O)N[C@H]1[C@H](O[C@H]2[C@@H](O)[C@@H](CO)O[C@@H](O[C@@H]([C@H](O)[C@@H](O)C=O)[C@H](O)CO)[C@@H]2O)O[C@H](CO)[C@@H](O[C@@H]2O[C@H](CO)[C@H](O)[C@H](O)[C@H]2O)[C@@H]1O [Lacto-N-neotetraose]
- NOAEL (Rattus norvegicus; subchronic, duration: 90 days, oral, gavage, M/F, Wistar, hematological): 2500 mg/kg-day

Compound: COc1cc(CCCS(=O)(=O)[O-])ccc1OC(Cc1cccc(OC)c1O)CS(=O)(=O)[O-].[Ca+2] (configuration not stated) [Lignosulfonic acid, calcium salt]
- NOAEL (Rattus norvegicus; [6]): 2000 mg/kg-day

Compound: Cc1occc(=O)c1O [Maltol]
- NOEL (Rattus norvegicus; chronic, duration: 2 years, oral, diet): 100 mg/kg-day

Compound: COC(=O)CCSCc1ccco1 [Methyl 3-{[(furan-2-yl)methyl]sulfanyl}propanoate]
- NOAEL (Rattus norvegicus; subchronic, duration: 90 days, oral, diet, M/F, clinical chemistry): 5.78 mg/kg-day

Compound: CC(C)(CO)[C@@H](O)C(=O)NCCC(=O)NCCSSCCNC(=O)CCNC(=O)[C@H](O)C(C)(C)CO [Pantethine]
- NOAEL (Rattus norvegicus; chronic, duration: 54 weeks, M/F, clinical chemistry): 36 mg/kg-day

Compound: C/C=C/C=C/C(=O)[O-].[K+] [Potassium (E,E)-hexa-2,4-dienoate]
- NOAEL (Rattus norvegicus; reproduction developmental, oral, gavage, M/F, Crj:CD, body weight): 300 mg/kg-day

Compound: Cc1cc2nc3c(=O)[nH]c(=O)nc-3n(C[C@H](O)[C@H](O)[C@H](O)COP(=O)([O-])O)c2cc1C.[Na+] [Riboflavin 5'-(dihydrogen phosphate), sodium salt (1:1)]
- NOAEL (Rattus norvegicus; subchronic, duration: 90 days, M/F, Wistar, no effects): 160 mg/kg-day

Compound: CC1S[C@H](C)N[C@H](C)S1 (some centres not stated) [Thialdine]
- NOAEL (Rattus norvegicus; subchronic, duration: 90 days, oral, diet, M, histopathology: nonneoplastic): 9.3 mg/kg-day

Compound: CN(C)C [Trimethylamine]
- NOAEL (Rattus norvegicus; subchronic, duration: 90 days): 90 mg/kg-day

Compound: O=P(c1ccccc1)(c1ccccc1)c1ccccc1 [Triphenylphosphine oxide]
- NOEL (Rattus norvegicus; [3]): 2 mg/kg-day

Compound: CCCCC(CC)COC(=O)c1ccc(C(=O)OCC(CC)CCCC)c(C(=O)OCC(CC)CCCC)c1 (configuration not stated) [Tris(2-ethylhexyl) trimellitate]
- NOAEL (Rattus norvegicus; subchronic, duration: 90 days, oral, diet, M/F, Sprague-Dawley, organ weight): 225 mg/kg-day
